Experimental findings from patent US4673675A, “1-(2-pyridyl) 4-cycloalkylmethyl piperazines having cardiotropic activity” (Innothera, priority 1984, dated 1987) are described below.

Data set [1] relates to isolated right auricle of a guinea pig. Nature of the data set: Chronotropic action (bradycardizing effect) on the isolated right auricle of a guinea pig. The following applies: 1·10^-4 g·ml^-1, 30 minutes contact, % reduction of beats/minute; for inhibition at 100 µg/mL: Cavia porcellus, 0.5 h. The procedure:
Guinea pigs of either sex were killed with a blow and bled, the right auricle was swiftly removed and immediately immersed in a Krebs-Henseleit solution, thermostatically controlled to 36° C.±0.5° C. and aerated with a mixture of O2 and CO2 (95% and 5%). The preparation was connected to an isometric myograph (F-50 Narco) then to a recording system (Physiograpg M-K III--Narco).
A 60 minute delay was required for ensuring chronotropic action stability.
The compounds (I) of the invention and the pharmaceutically acceptable salts thereof were added to the nutritive medium in a concentration of 1.10^-4 g.ml^-1 and left in contact with the auricle for 30 minutes. The action was evaluated by the percentage reduction of the number of beats/minute (beat/min.) before administration of the compound under test.

The target of data set [2] is T1, isolated left auricle of a guinea pig (cardiac inotropic function β1) (Cavia porcellus, UniProt H0W3H1).
T1 construct: the left auricle being swiftly removed and immersed immediately in a Krebs-Henseleit solution; from tissue; host or cells: isolated left auricle of guinea pigs of either sex
Put plainly: Positive inotropic effect: contractile force of the isolated left auricle of a guinea pig. An excerpt:
The in vitro study was made on the contractile force of the isolated left auricle of a guinea pig. The technique used was that of P. LUMBEY et Coll. […] It allowed the cardiac inotropic function β1 to be studied.
The preparation was connected to an isometric myograph (F-50 Narco), then to a recording system (Physiograph M-K III Narco). For the whole duration of the test the auricle was electrically stimulated by a neurostimulator (Equipement Industriel II) at the frequence of 90 to 120 beats/min.

Data set [3] concerns cardiac hemodynamics in anaesthetized dogs. Put plainly: Cardiac hemodynamics in dogs anaesthetized with Nembutal, open thorax. Type of data set: in vivo, dog. The method, then: (§1) The positive inotropic effect of compounds (I) of the invention and the pharmaceutically acceptable salts thereof were further tested on the cardiac dynamics of an anaesthetized animal and on a wakeful chronically implanted animal.
(§2) a. Test on a dog anaesthetized with Nembutal
(§3) Two test protocols were carried out, one on a dog with open thorax and the other on a dog with closed thorax. The left intraventricular pressure (PIVG) and aortic pressure (supra sigmoid) (PAO) were measured with high fidelity micro-sensors (Millar 5F), the first derivative of the left ventricular pressure (dP/dt) was recorded as well as the electrocardiogram. The instantaneous alveolar PCO2 was continuously measured. Finally, different blood flow rates were measured, namely the femoral and carotid flow rates in the animals with closed thorax and the aortic and coronary flow rates in those on which a thoracotomy had been performed. These different rates were measured by the electro-magnetic method.

Data set [4] deals with cardiac hemodynamics of anaesthetized dogs. Nature of the data set: Cardiac hemodynamics in dogs anaesthetized with Nembutal, closed thorax. The format is in vivo, dog. The method, then:
as §1, §2, §3
An analysis of the dose/effect relation on three dogs (see results shown in table V below) confirmed the results obtained on dogs with open thorax for compound 1a.

Data set [5] deals with cardiac hemodynamics in chronically implanted wakeful dogs. Put plainly: Cardiac hemodynamics in chronically implanted wakeful dogs. The format is in vivo, dog. The method, then: as §1
b. Test on chronically implanted wakeful dogs
The compounds were tested orally and intravenously on dogs previously implanted with a pressure probe placed in the left ventricle (Janssen) and a Doppler rate sensor placed on the aorta, the tests being carried out at the minium 8 days after implantation.

Data set [6] is described as follows: Toxicity by a single intravenous administration in mice. The following applies: mouse, in vivo; single intravenous administration, mice; Litchfield and Wilcoxon; read-out: LD50 (95% confidence limit). The format is in vivo. The method, then:
(§4) The toxicity of the compounds of the invention was also tested. It concerns more precisely the test of toxicity by a single administration made for all the compounds on male mice, E.O.P.S. of SWISS strain (5 animals per batch).
(§5) The compounds under test were solubilized in a […] aqueous solution of NaCl, at various concentrations and the solutions obtaoned were injected intravenously at the rate of 10 ml.kg^-1 of body weight.
(§6) The administration was made in 20 seconds, the animals being kept under clinical observation for 3 hours after administration, then daily for 7 days.

Data set [7] has as its system male mice, E.O.P.S. of SWISS strain. Described as above. Type of data set: in vivo. The following applies: single i.v. administration; symptoms observed at the dose where there was no mortality. The method, then: as §4, §5, §6
[8] abbreviates: 0.5 mg·kg^-1 i.v., closed thorax.

T1 sequence (H0W3H1 1-470): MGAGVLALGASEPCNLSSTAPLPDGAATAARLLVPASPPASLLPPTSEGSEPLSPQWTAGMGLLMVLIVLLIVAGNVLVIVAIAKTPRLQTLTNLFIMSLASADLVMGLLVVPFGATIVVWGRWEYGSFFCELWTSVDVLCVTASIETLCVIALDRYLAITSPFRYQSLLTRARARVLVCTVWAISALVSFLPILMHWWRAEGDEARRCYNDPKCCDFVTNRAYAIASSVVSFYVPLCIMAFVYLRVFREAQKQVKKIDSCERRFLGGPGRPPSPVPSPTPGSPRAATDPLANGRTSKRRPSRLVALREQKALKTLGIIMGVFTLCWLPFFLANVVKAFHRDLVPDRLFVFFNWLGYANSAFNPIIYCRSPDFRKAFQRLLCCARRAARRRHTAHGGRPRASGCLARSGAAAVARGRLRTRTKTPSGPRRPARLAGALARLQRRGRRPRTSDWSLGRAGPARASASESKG

Regarding `c1ccc(N2CCN(CC3CC3)CC2)nc1` [Compound 1a, 1-(2-pyridyl) 4-cyclopropylmethyl piperazine], in data set [1], the inhibition at 100 µg/mL is 24%. The Emax in data set [2] (guinea pig, read-out: α (intrinsic activity)) stood at 60 ± 30%. For the same compound, the EC50 in data set [2] (negative log. of the molar concentration producing 50% of maximum action, stimulated at 90 to 120 beats/min, read-out: pD2 (converted)) was 20.9 µM. In addition, in data set [3] (0.5 mg·kg^-1 i.v.), the other parameters measured result is recorded as “did not vary significantly” and the “time of the acme of the action after injection” value was 45 min. In addition, the “decrease of left ventricular telediastolic pressure” value in data set [3] (0.5 mg·kg^-1 i.v., significant) is on record as 28%. Further, in data set [3] (1 mg·kg^-1 i.v.), the “D.A.O. (aortic flow rate) modification” value was “+23%”, the “V.E.S. (systolic ejection volume) modification” value was “+13%” and the “time following injection during which dP/dt increased significantly” value turned out to be 90 min. Besides, the “dP/dt+ (first derivative of the left ventricular pressure) modification” value in data set [3] (1 mg·kg^-1 i.v., significant) is reported as “+31%”. Moreover, in data set [4] (setting [8]), the “P.Ao m (average aortic pressure) modification” value is given as “+11%” and the “PtdVG (left ventricular telediastolic pressure) modification” value was -35%. For the same compound, in data set [4] (2 mg·kg^-1 i.v., closed thorax), the “P.Ao m (average aortic pressure) modification” value is “+8%”, the “PtdVG (left ventricular telediastolic pressure) modification” value was -31% and the “dP/dt+ (first derivative of the left ventricular pressure) modification” value is on record as “+28%”. Further, the respiratory analeptic effect entry in data set [4] (anaesthetized dogs, i.v.) was “appreciable and durable respiratory analeptic effect”. Further, in data set [4] (i.v., closed thorax), the “duration of the positive inotropic effect” value is “exceeds three”. Moreover, in data set [4] (i.v., closed thorax, increasing the dose did not increase the effect), the “dose at which the acme of the positive inotropic effect appeared” value was found to be 0.5 mg/kg. The “increase of the dP/dt+” value in data set [5] (1 mg.kg^-1 intravenously) is reported as 136%. Besides, the “PIVG Syst. (left intraventricular pressure) modification” value in data set [5] (5 mg·kg^-1 p.o.) is listed as “+15%”. In addition, in data set [5] (10 mg·kg^-1 p.o.), the “D.A.O. (aortic flow rate) modification” value is given as “+27%”; the “F.C. (heartbeat rate, cardiac frequency) modification” value is recorded as “+45%”; the “PIVG Syst. (left intraventricular pressure) modification” value is reported as “+26%”; the “dP/dt+ (first derivative of the left ventricular pressure) modification” value is “+55%”. Also, the “increase of dP/dt+/P” value in data set [5] (5 and 10 mg.kg^-1 orally (results approximately similar for both doses)) amounted to 32%. For the same compound, in data set [6], the LD50 at 168 h is 47 mg/kg.
Take `c1ccc(N2CCN(CC3CCC3)CC2)nc1` [Compound 2]: in data set [1], the inhibition at 100 µg/mL was determined as 7%. Further, in data set [6], the LD50 at 168 h is 67 mg/kg.
Turning to `c1ccc(N2CCN(CC3CCCCC3)CC2)nc1` [Compound 3], the inhibition at 100 µg/mL in data set [1] came out at 13%. Besides, the 50% lethal dose (LD50) at 168 h in data set [6] worked out at 81 mg/kg. Also, the Clinical symptomatology entry in data set [7] was “Hypersensitivity, stereotypy”.
Compound `CC(C)N(CCN1CCN(c2ccccn2)CC1)C(C)C` [Compound 4] had an inhibition at 100 µg/mL in data set [1] of 9%. Further, in data set [6], the LD50 at 168 h came out at 95 mg/kg. For the same compound, in data set [7], the Clinical symptomatology result is recorded as “Cyanosis, starts”.
As to `c1ccc(N2CCN(CCN3CCCCCC3)CC2)nc1` [Compound 6], in data set [1], the “Reduction of the chronotropic effect” value is given as “Arrhythmia”. Also, the LD50 at 168 h in data set [6] was 84 mg/kg.
For the compound `CCN(CC)CCCN1CCN(c2ccccn2)CC1` [Compound 7], at 100 µg/mL the inhibition in data set [1] was 16%. Besides, the LD50 at 168 h in data set [6] stood at 96 mg/kg. For the same compound, the Clinical symptomatology result in data set [7] is reported as “Cyanosis, apnoea”.
Compound `c1ccc(N2CCN(CCCN3CCCC3)CC2)nc1` [Compound 8] registered an inhibition at 100 µg/mL in data set [1] of 20%. For the same compound, the LD50 at 168 h in data set [6] is 142 mg/kg.
In the case of `c1ccc(N2CCN(CCCN3CCCCCC3)CC2)nc1` [Compound 10], the inhibition at 100 µg/mL in data set [1] stood at 0%. For the same compound, in data set [6], the median lethal dose (LD50) at 168 h amounted to 74 mg/kg.
`c1ccc(N2CCN(CCCN3CCOCC3)CC2)nc1` [Compound 11]: in data set [1], the “Reduction of the chronotropic effect” value is reported as “Arrhythmia”.
The compound `CC1CN(CCCN2CCN(c3ccccn3)CC2)CC(C)O1` (stereo not drawn) [Compound 12] returned an inhibition at 100 µg/mL in data set [1] of 0%. In addition, the LD50 at 168 h in data set [6] amounted to 149 mg/kg.
In the case of `CCN(CC)CC(C)N1CCN(c2ccccn2)CC1` (stereo not drawn) [Compound 13], the “Reduction of the chronotropic effect” value in data set [1] is “Arrhythmia”. Moreover, the LD50 at 168 h in data set [6] was found to be 76 mg/kg.
Take `O=C(CN1CCN(c2ccccn2)CC1)Nc1cccc(F)c1` [Compound 14]: the inhibition at 100 µg/mL in data set [1] was 18%. For the same compound, the LD50 at 168 h in data set [6] was 129 mg/kg. Further, in data set [7], the Clinical symptomatology entry is reported as “Apnoea, sedation”.
For `O=C(CN1CCN(c2ccccn2)CC1)Nc1cc(F)cc(F)c1` [Compound 15], in data set [1], at 100 µg/mL the inhibition was 0%.
Consider `O=C(CN1CCN(c2ccccn2)CC1)Nc1cccc(C(F)(F)F)c1` [Compound 16], for which, in data set [1], the inhibition at 100 µg/mL is 18%. In data set [6], the LD50 at 168 h came out at 109 mg/kg.
`COc1cc(CN2CCN(c3ccccn3)CC2)cc(OC)c1OC` [Compound 17] yielded an inhibition at 100 µg/mL in data set [1] of 31%. Moreover, the LD50 at 168 h in data set [6] was 130 mg/kg.
In turn, `Clc1c(CN2CCN(c3ccccn3)CC2)ccc2c1OCO2` [Compound 18] returned an inhibition at 100 µg/mL in data set [1] of 11%.
